{
  "source": "patent US20160376240A1",
  "about": "“6 Phenyl or 6 Pyridin 3 YL Indazole Derivatives and Methods of Use” (ABBVIE INC., priority 2014, published 2016)",
  "biological_target": "T1, TrkA (Homo sapiens, UniProt P04629)",
  "T1 construct": "purchased Invitrogen PV3144",
  "T1 sequence (P04629 33-796)": "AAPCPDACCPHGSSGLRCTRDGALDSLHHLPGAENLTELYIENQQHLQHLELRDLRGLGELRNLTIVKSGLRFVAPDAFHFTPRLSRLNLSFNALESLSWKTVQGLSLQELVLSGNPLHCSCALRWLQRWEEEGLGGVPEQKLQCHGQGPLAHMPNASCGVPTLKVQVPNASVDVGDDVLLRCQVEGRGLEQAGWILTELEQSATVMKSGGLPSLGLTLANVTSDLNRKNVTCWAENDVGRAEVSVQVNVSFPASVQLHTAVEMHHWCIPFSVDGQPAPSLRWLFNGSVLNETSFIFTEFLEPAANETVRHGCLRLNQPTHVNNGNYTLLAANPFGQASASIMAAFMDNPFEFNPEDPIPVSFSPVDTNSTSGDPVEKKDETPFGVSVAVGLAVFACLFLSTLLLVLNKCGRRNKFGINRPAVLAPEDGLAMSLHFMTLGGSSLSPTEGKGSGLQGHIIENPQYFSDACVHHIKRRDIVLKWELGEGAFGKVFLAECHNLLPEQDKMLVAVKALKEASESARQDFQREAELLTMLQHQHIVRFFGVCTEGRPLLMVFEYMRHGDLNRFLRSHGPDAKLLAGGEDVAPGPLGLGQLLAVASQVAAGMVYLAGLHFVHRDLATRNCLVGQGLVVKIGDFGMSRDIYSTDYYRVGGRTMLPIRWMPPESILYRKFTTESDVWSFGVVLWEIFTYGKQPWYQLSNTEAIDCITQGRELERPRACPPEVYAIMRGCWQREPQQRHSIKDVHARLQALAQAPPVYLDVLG",
  "assay": "TrkA kinase inhibition, HTRF assay",
  "format": "biochemical",
  "conditions": "LCK peptide substrate 125 nM, TrkA 2-10 nM pre-incubated with ATP 200 μM",
  "protocol": "TrkA, TrkB, and TrkC enzymes were obtained from Invitrogen (as catalog numbers PV3144, PV3616, and PV3617, respectively). The ability of a compound to inhibit the enzymatic activity of the TrkA, TrkB, and TrkC enzymes was determined in separate assays. Enzyme activity was measured in an HTRF® (homogeneous time resolved fluorescence) assay, which detects enzymatic phosphorylation of a biotinylated synthetic peptide substrate (an LCK peptide analog, biotin-ahx-GAEEEIYAAFFA, from Genemed Synthesis). Phosphorylation is assessed by HTRF® in the presence of an anti-phosphotyrosine antibody conjugated to Eu^3+ cryptate (Cisbio) as donor fluorophore, and streptavidin conjugated to allophycocyanin (ProZyme) as acceptor fluorophore. The HTRF® signal was detected at two different wavelengths (620 nm and 665 nm) which were used to calculate the fluorescence ratio.\nEach enzyme was titrated to a concentration optimized to ensure accurate measurement of the initial reaction rate. To allow the Trk enzymes to undergo activation and auto-phosphorylation, a 20 minute pre-incubation with ATP was carried out (at twice the final targeted enzyme and ATP concentration) prior to addition of test compound and the peptide substrate.\nTrkA in vitro assays were performed by pre-incubating TrkA (2-10 nM) with ATP (200 μM) for 20 minutes at ambient temperature in 50 mM HEPES pH 7.4, 10 mM MgCl2, 2 mM MnCl2, 100 μM Na3VO4, 1 mM dithiothreitol, 0.01% BSA (bovine serum albumin). Then, to the activated Trk enzyme mixture was added the test compound in 2% dimethyl sulfoxide. After 10 minutes, the peptide substrate (125 nM) was added. After 1 hour, enzyme reactions were terminated by addition of equal reaction volumes of detection/stop reagent (containing 0.2 μg/mL anti-phosphotyrosine monoclonal antibody labeled with europium from Cisbio (catalog# PT66-K), and 4 μg/mL PhycoLink® Streptavidin-Allophycocyanin conjugate from ProZyme (catalog# PJ25S) in 60 mM EDTA in 40 mM HEPES pH 7.4, 480 mM KF, 0.01% Tween® 20 and 0.1% BSA bovine serum albumin) Reaction plates were stored at 4° C. overnight before reading the fluorescence ratio signal on a PerkinElmer EnVision™ fluorescence detector. Individual reaction wells were stopped at time points to obtain reaction rates. The test inhibitor compounds were assayed in duplicate, at half-log serial dilutions over a range of concentrations (e.g. starting at 50 μM or 5 μM as the high compound concentration). The percent Trk enzyme inhibition was calculated from the initial rates of the inhibited reactions relative to the uninhibited control. IC50 values were calculated by fitting the inhibition percent to the concentration of inhibitor [I] in the assay in equation 1 below, to solve for the IC50.\nInhibition %=100[I]/([I]+[IC50]) equation 1",
  "data": [
    {"compound": "4-{3-amino-4-[(1,1,1-trifluoropropan-2-yl)oxy]-1H-indazol-6-yl}-2-(4-cyclopentylpiperazin-1-yl)benzamide [Example 102]", "values": [
      {"measurement": "IC50", "value": 19.2, "unit": "nM"}
    ]},
    {"compound": "CC(=O)N1CCN(c2cc(-c3cc(OC4CCOCC4)c4c(N)n[nH]c4c3)ccc2C(N)=O)CC1", "note": "[Example 4, 2-(4-acetylpiperazin-1-yl)-4-[3-amino-4-(tetrahydro-2H-pyran-4-yloxy)-1H-indazol-6-yl]benzamide]", "values": [
      {"measurement": "IC50", "value": 147, "unit": "nM"}
    ]},
    {"compound": "NC(=O)c1ccc(-c2cc(OC3CCOCC3)c3c(N)n[nH]c3c2)cc1N1CCN(CCN2CCOCC2)CC1", "note": "[Example 5, 4-[3-amino-4-(tetrahydro-2H-pyran-4-yloxy)-1H-indazol-6-yl]-2-{4-[2-(morpholin-4-yl)ethyl]piperazin-1-yl}benzamide]", "values": [
      {"measurement": "IC50", "value": 37, "unit": "nM"}
    ]},
    {"compound": "NC(=O)c1ccc(-c2cc(OC3CCOCC3)c3c(N)n[nH]c3c2)cc1N1CCN(CCCO)CC1", "note": "[Example 7, 4-[3-amino-4-(tetrahydro-2H-pyran-4-yloxy)-1H-indazol-6-yl]-2-[4-(3-hydroxypropyl)piperazin-1-yl]benzamide]", "values": [
      {"measurement": "IC50", "value": 706, "unit": "nM"}
    ]},
    {"compound": "NC(=O)c1ccc(-c2cc(OC3CCOCC3)c3c(N)n[nH]c3c2)cc1N1CCN(c2cncc(Cl)c2)CC1", "note": "[Example 8, 4-[3-amino-4-(tetrahydro-2H-pyran-4-yloxy)-1H-indazol-6-yl]-2-[4-(5-chloropyridin-3-yl)piperazin-1-yl]benzamide]", "values": [
      {"measurement": "IC50", "value": 4.42, "unit": "nM"}
    ]},
    {"compound": "CN1CCC(N2CCN(c3cc(-c4cc(OC5CCOCC5)c5c(N)n[nH]c5c4)ccc3C(N)=O)CC2)CC1", "note": "[Example 9, 4-[3-amino-4-(tetrahydro-2H-pyran-4-yloxy)-1H-indazol-6-yl]-2-[4-(1-methylpiperidin-4-yl)piperazin-1-yl]benzamide]", "values": [
      {"measurement": "IC50", "value": 3460, "unit": "nM"}
    ]},
    {"compound": "NC(=O)c1ccc(-c2cc(OC3CCOCC3)c3c(N)n[nH]c3c2)cc1N1CCN(CCc2ccccn2)CC1", "note": "[Example 10, 4-[3-amino-4-(tetrahydro-2H-pyran-4-yloxy)-1H-indazol-6-yl]-2-{4-[2-(pyridin-2-yl)ethyl]piperazin-1-yl}benzamide]", "values": [
      {"measurement": "IC50", "value": 136, "unit": "nM"}
    ]},
    {"compound": "NC(=O)c1ccc(-c2cc(OC3CCOCC3)c3c(N)n[nH]c3c2)cc1N1CCN(CCOCCO)CC1", "note": "[Example 11, 4-[3-amino-4-(tetrahydro-2H-pyran-4-yloxy)-1H-indazol-6-yl]-2-{4-[2-(2-hydroxyethoxy)ethyl]piperazin-1-yl}benzamide]", "values": [
      {"measurement": "IC50", "value": 208, "unit": "nM"}
    ]},
    {"compound": "NC(=O)c1ccc(-c2cc(OC3CCOCC3)c3c(N)n[nH]c3c2)cc1N1CCN(c2cccc(Cl)c2)CC1", "note": "[Example 12, 4-[3-amino-4-(tetrahydro-2H-pyran-4-yloxy)-1H-indazol-6-yl]-2-[4-(3-chlorophenyl)piperazin-1-yl]benzamide]", "values": [
      {"measurement": "IC50", "value": 2.9, "unit": "nM"}
    ]},
    {"compound": "CC(=O)c1ccc(-c2cc(OC3CCOCC3)c3c(N)n[nH]c3c2)cc1N1CCN(c2ccccc2)CC1", "note": "[Example 13, 1-{4-[3-amino-4-(tetrahydro-2H-pyran-4-yloxy)-1H-indazol-6-yl]-2-(4-phenylpiperazin-1-yl)phenyl}ethanone]", "values": [
      {"measurement": "IC50", "value": 62.9, "unit": "nM"}
    ]},
    {"compound": "CC(=O)c1ccc(-c2cc(OC3CCOCC3)c3c(N)n[nH]c3c2)cc1N1CCN(C2CC2)CC1", "note": "[Example 14, 1-{4-[3-amino-4-(tetrahydro-2H-pyran-4-yloxy)-1H-indazol-6-yl]-2-(4-cyclopropylpiperazin-1-yl)phenyl}ethanone]", "values": [
      {"measurement": "IC50", "value": 110, "unit": "nM"}
    ]},
    {"compound": "CC(=O)c1ccc(-c2cc(OC3CCOCC3)c3c(N)n[nH]c3c2)cc1N1CCN(c2ncccn2)CC1", "note": "[Example 15, 1-{4-[3-amino-4-(tetrahydro-2H-pyran-4-yloxy)-1H-indazol-6-yl]-2-[4-(pyrimidin-2-yl)piperazin-1-yl]phenyl}ethanone]", "values": [
      {"measurement": "IC50", "value": 9.59, "unit": "nM"}
    ]},
    {"compound": "CC(=O)c1ccc(-c2cc(OC3CCOCC3)c3c(N)n[nH]c3c2)cc1N1CCN(c2cccnc2)CC1", "note": "[Example 16, 1-{4-[3-amino-4-(tetrahydro-2H-pyran-4-yloxy)-1H-indazol-6-yl]-2-[4-(pyridin-3-yl)piperazin-1-yl]phenyl}ethanone]", "values": [
      {"measurement": "IC50", "value": 29.6, "unit": "nM"}
    ]}
  ]
}
